Data taken from patent US10875874B2, “Ginkgolide B derivative and preparation method and use thereof” (Chengdu Baiyu Ginkgolide Pharmaceuticals Co., Ltd., priority 2015, dated 2020).
Converted amounts (≈) assume the structure as drawn. Marks after values point to notes of the source that are not given here.

Experiments:
[1] = Weekly body weight of SHR rats; assay type: in vivo, rat
In short: (§1)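 Male and female SHR rats (200-250 g, 8/group) dosed intragastrically once daily for 8 weeks with test compounds at 60 or 120 mg/kg/d or captopril 27 mg/kg; Wistar and SHR controls received distilled water. Body weight and food intake observed during treatment.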

[2] = system: spontaneously hypertensive rats (SHR); experiment: Caudal artery systolic pressure of spontaneously hypertensive rats, single administration; assay type: in vivo, rat; settings: x ± s, n = 8
In short: (§2)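 SHR rats of both sexes (200–250 g, 8/group) dosed intragastrically with 60 or 120 mg/kg/d, or captopril 27 mg/kg, once daily for 8 weeks; Wistar rats and vehicle SHR served as controls. Tail-cuff systolic pressure taken as the mean of 3 readings, measured before dosing and 30–120 min after the first dose, or 30 min post-dose on days 1–56 for chronic treatment.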

[3] = system: spontaneously hypertensive rats (SHR); experiment: Caudal artery systolic pressure of spontaneously hypertensive rats, 8 weeks of continuous medication; assay type: in vivo, rat; settings: x ± s, n = 8
In short: as §2

[4] = physchem; settings: water, thermodynamic from solid
Description: Measuring method: samples are ground to obtain fine powder, target compounds are quantitatively weighed, the weighed compounds are added into purified water, and the solubility of the compounds is investigated by ultrasonics.

[5] = Weekly food intake of SHR rats; assay type: in vivo, rat
In short: as §1

[6] = 60 mg/kg/d intragastric, week 0
[7] = 60 mg/kg/d intragastric, week 1
[8] = 60 mg/kg/d intragastric, week 2
[9] = 60 mg/kg/d intragastric, week 3
[10] = 60 mg/kg/d intragastric, week 4
[11] = 60 mg/kg/d intragastric, week 5
[12] = 60 mg/kg/d intragastric, week 6
[13] = 60 mg/kg/d intragastric, week 7
[14] = 60 mg/kg/d intragastric, week 8
[15] = 120 mg/kg/d intragastric, week 0
[16] = 120 mg/kg/d intragastric, week 1
[17] = 120 mg/kg/d intragastric, week 2
[18] = 120 mg/kg/d intragastric, week 3
[19] = 120 mg/kg/d intragastric, week 4
[20] = 120 mg/kg/d intragastric, week 5
[21] = 120 mg/kg/d intragastric, week 6
[22] = 120 mg/kg/d intragastric, week 7
[23] = 120 mg/kg/d intragastric, week 8

## Cc1nc(C)c(CO[C@H]2C(=O)O[C@H]3O[C@]45C(=O)OC6C[C@@H](C(C)(C)C)C32[C@@]64[C@@H](O)[C@@H]2OC(=O)[C@@H](C)[C@@]25O)nc1C (some centres unmarked) [BM]
[1]; [6]
  Body weight: 231.5 g
[1]; [7]
  Body weight: 236.8 g
[1]; [8]
  Body weight: 245.7^▴▴ g
[1]; [9]
  Body weight: 253.4 g
[1]; [10]
  Body weight: 258.3 g
[1]; [11]
  Body weight: 263.5^▴ g
[1]; [12]
  Body weight: 271.3^▴▴ g
[1]; [13]
  Body weight: 281.6^▴▴ g
[1]; [14]
  Body weight: 292.5^▴▴ g
[1]; [15]
  Body weight: 233.4 g
[1]; [16]
  Body weight: 249.5^▴▴ g
[1]; [17]
  Body weight: 256.8^▴▴ g
[1]; [18]
  Body weight: 264.3^▴▴ g
[1]; [19]
  Body weight: 271.6^▴▴ g
[1]; [20]
  Body weight: 280.4^▴▴ g
[1]; [21]
  Body weight: 290.5^▴▴ g
[1]; [22]
  Body weight: 305.7^▴▴ g
[1]; [23]
  Body weight: 315.8^▴▴ g
[2]; 60 mg/kg intragastric single administration, 30 min
  Systolic pressure: 156.21 ± 9.68 mmHg
[2]; 60 mg/kg intragastric single administration, 60 min
  Systolic pressure: 152.06 ± 9.78 mmHg
[2]; 60 mg/kg intragastric single administration, 90 min
  Systolic pressure: 151.74 ± 13.15 mmHg
[2]; 60 mg/kg intragastric single administration, 120 min
  Systolic pressure: 152.52 ± 15.06 mmHg
[2]; 60 mg/kg intragastric single administration, before administration
  Systolic pressure: 166.27 ± 14.01 mmHg
[2]; 120 mg/kg intragastric single administration, 30 min
  Systolic pressure: 149.04 ± 10.95 mmHg
[2]; 120 mg/kg intragastric single administration, 60 min
  Systolic pressure: 151.58 ± 9.85 mmHg
[2]; 120 mg/kg intragastric single administration, 90 min
  Systolic pressure: 153.65 ± 11.04 mmHg
[2]; 120 mg/kg intragastric single administration, 120 min
  Systolic pressure: 151.00 ± 9.85 mmHg
[2]; 120 mg/kg intragastric single administration, before administration
  Systolic pressure: 163.45 ± 15.24 mmHg
[3]; 60 mg/kg/d intragastric continuous, 1 d, 30 min after administration
  Systolic pressure: 155.25 ± 12.36 mmHg
[3]; 60 mg/kg/d intragastric continuous, 7 d, 30 min after administration
  Systolic pressure: 154.85 ± 10.49 mmHg
[3]; 60 mg/kg/d intragastric continuous, 13 d, 30 min after administration
  Systolic pressure: 153.26 ± 12.95 mmHg
[3]; 60 mg/kg/d intragastric continuous, 19 d, 30 min after administration
  Systolic pressure: 156.74 ± 10.36 mmHg
[3]; 60 mg/kg/d intragastric continuous, 25 d, 30 min after administration
  Systolic pressure: 154.75 ± 10.39 mmHg
[3]; 60 mg/kg/d intragastric continuous, 35 d, 30 min after administration
  Systolic pressure: 151.48 ± 10.32 mmHg
[3]; 60 mg/kg/d intragastric continuous, 49 d, 30 min after administration
  Systolic pressure: 151.17 ± 14.05 mmHg
[3]; 60 mg/kg/d intragastric continuous, 56 d, 30 min after administration
  Systolic pressure: 154.64 ± 11.42 mmHg
[3]; 60 mg/kg/d intragastric continuous, before administration
  Systolic pressure: 166.27 ± 14.01 mmHg
[3]; 120 mg/kg/d intragastric continuous, 1 d, 30 min after administration
  Systolic pressure: 154.62 ± 5.74 mmHg
[3]; 120 mg/kg/d intragastric continuous, 7 d, 30 min after administration
  Systolic pressure: 152.31 ± 10.56 mmHg
[3]; 120 mg/kg/d intragastric continuous, 13 d, 30 min after administration
  Systolic pressure: 151.58 ± 12.06 mmHg
[3]; 120 mg/kg/d intragastric continuous, 19 d, 30 min after administration
  Systolic pressure: 153.06 ± 10.41 mmHg
[3]; 120 mg/kg/d intragastric continuous, 25 d, 30 min after administration
  Systolic pressure: 148.54 ± 11.62 mmHg
[3]; 120 mg/kg/d intragastric continuous, 35 d, 30 min after administration
  Systolic pressure: 149.36 ± 10.75 mmHg
[3]; 120 mg/kg/d intragastric continuous, 49 d, 30 min after administration
  Systolic pressure: 150.32 ± 9.59 mmHg
[3]; 120 mg/kg/d intragastric continuous, 56 d, 30 min after administration
  Systolic pressure: 149.78 ± 11.64 mmHg
[3]; 120 mg/kg/d intragastric continuous, before administration
  Systolic pressure: 163.45 ± 15.24 mmHg
[4]
  solubility: 250 µg/mL (≈ 448 µM)
[5]; [6]
  Average dairy food intake: 18.2 g/day
[5]; [7]
  Average dairy food intake: 19.1^▴ g/d
[5]; [8]
  Average dairy food intake: 19.9^▴ g/d
[5]; [9]
  Average dairy food intake: 20.9^▴▴ g/d
[5]; [10]
  Average dairy food intake: 21.3^▴▴ g/d
[5]; [11]
  Average dairy food intake: 22.4^▴▴ g/d
[5]; [12]
  Average dairy food intake: 23.1^▴▴ g/d
[5]; [13]
  Average dairy food intake: 24.7^▴▴ g/d
[5]; [14]
  Average dairy food intake: 25.5^▴▴ g/d
[5]; [15]
  Average dairy food intake: 18.5 g/day
[5]; [16]
  Average dairy food intake: 19.9^▴ g/d
[5]; [17]
  Average dairy food intake: 20.7^▴▴ g/d
[5]; [18]
  Average dairy food intake: 22.6^▴▴ g/d
[5]; [19]
  Average dairy food intake: 22.9^▴▴ g/d
[5]; [20]
  Average dairy food intake: 23.7^▴▴ g/d
[5]; [21]
  Average dairy food intake: 24.4^▴▴ g/d
[5]; [22]
  Average dairy food intake: 25.8^▴▴ g/d
[5]; [23]
  Average dairy food intake: 27.6^▴▴ g/d
